From ChEMBL document CHEMBL3881525, “Analogs of dehydrophenylahistins and their therapeutic use” (2007)
Activity calls are given as the source filed them. The calls are words filed in the database; no cut-off is given here.

Assays:
HeLa = assay: Effect on cell cycle progression in human HeLa cells assessed as increase in 4N cells at 100 nM; assay type: functional, cell-based
HUVEC [1] = assay: Induction of apoptosis in HUVEC assessed as cell shrinkage; assay type: functional, cell-based; settings: Homo sapiens
Jurkat [2] = assay: Induction of apoptosis in human Jurkat cells assessed as DNA laddering at 1 nM by gel electrophoresis; assay type: functional, cell-based
Jurkat [3] = assay: Induction of apoptosis in human Jurkat cells assessed as PARP cleavage at 100 nM measured after 10 hrs by Western blotting; assay type: functional, cell-based
HUVEC [4] = assay: Induction of monolayer permeability in HUVEC assessed as colchicin transport at 2 uM measured up to 1 hr; assay type: functional, cell-based; settings: Homo sapiens
[5] = Antitumor activity against human HT-29 cells xenografted in nude mouse assessed as tumor growth inhibition at 10 mg/kg, ip administered every third day for 5 days in presence of CPT-11 relative to control; assay type: functional; settings: HT-29, ip, 120 h, read-out: TGI
MDA-MB-231 = assay: Antitumor activity against human MDA-MB-231 cells xenografted in nude mouse assessed as tumor growth inhibition at 7.5 mg/kg, ip administered thrice per day for 5 days in presence of paclitaxel relative to control; assay type: functional, organism-based
[6] = Antifungal activity against Trichophyton rubrum isolate 1 measured after 48 hrs by broth dilution method; assay type: functional
[7] = test system: Trichophyton mentagrophytes; assay: Fungicidal activity against Trichophyton mentagrophytes isolate 1 measured after 48 hrs by broth dilution method; assay type: functional; settings: isolate 1, 48 h
[8] = Antifungal activity against Trichophyton mentagrophytes isolate 2 measured after 48 hrs by broth dilution method; assay type: functional
Mus musculus = assay: Antivascular activity against mouse N202 tumor spheroids expressing H2B-GFP allografted in mouse assessed as inhibition of tumor-induced central vasculature at 10 mg/kg, iv administered on day 13 as infusion for 5 mins measured on day 15 by fluorescence video microscopy; assay type: functional, organism-based
Rattus norvegicus = assay: Effect on blood flow in rat gut at 15 mg/kg, ip measured after 1 hr by [125I]iodoantipyrine based method relative to vehicle control; assay type: ADME, organism-based; settings: in vivo
MCF7 = assay: Antimitotic activity in human MCF7 cells assessed as mitotic index measured after 20 hrs by DAPI-staining based fluorescence microscopic analysis; assay type: functional, cell-based
Tubulin (Homo sapiens) = Tubulin (Homo sapiens) (UniProt P68371+Q9H4B7+P0DPH7+P68366+Q13509+Q71U36+P04350+Q3ZCM7+P07437+P68363+Q9BQE3+Q6PEY2+Q13885+Q9BVA1+Q9BUF5); assay: Induction of microtubule instability in human MCF7 cells assessed as rescue frequency at IC50 for mitotic block measured after 20 hrs by immunofluorescence analysis; assay type: cell-based
[9] = Antitumor activity against human A549 cells xenografted in nude mouse assessed as tumor growth inhibition at 7.5 mg/kg, ip qd administered every third day for 5 days in presence of CPT-11 relative to control; assay type: functional; settings: 120 h, read-out: TGI

For `CC(C)(C)c1[nH]cnc1/C=c1\[nH]c(=O)/c(=C/c2ccccc2)[nH]c1=O` [PLINABULIN], the Activity (HeLa) was “Active”, the Activity (HUVEC [1]) was “Active” and the Activity (Jurkat [2]) was “Active”. For the same compound, the Activity (Jurkat [3]) was “Active”, the Activity (HUVEC [4]) was “Active” and the inhibition in vivo at 10 mg/kg [5] was 65.8 to 83.3%. The TGI (MDA-MB-231) was “Active”, the MIC [6] was greater than 16 µg/mL and the MFC [7] was greater than 16 µg/mL. For the same compound, the MIC [8] was greater than 16 µg/mL, the inhibition (Mus musculus) was “Active” and the Activity (Rattus norvegicus) was “Non-Toxic”. The inhibition (MCF7) was “Dose-dependent effect”, the Activity (Tubulin (Homo sapiens)) was 2.6 min⁻¹ and the inhibition in vivo at 7.5 mg/kg [9] was 74%.
